Assay results published in patent US10266497B2 (ABIDE THERAPEUTICS, INC., priority 2017, dated 2019).

Columns and labels:
MAGL [1] = target: T1, MAGL (Mus musculus, UniProt O35678); experiment: In vitro competitive activity-based protein profiling, MAGL, mouse; conditions: read-out: MAGL % inh. 1 μM (mouse)
T1 sequence (O35678 1-303): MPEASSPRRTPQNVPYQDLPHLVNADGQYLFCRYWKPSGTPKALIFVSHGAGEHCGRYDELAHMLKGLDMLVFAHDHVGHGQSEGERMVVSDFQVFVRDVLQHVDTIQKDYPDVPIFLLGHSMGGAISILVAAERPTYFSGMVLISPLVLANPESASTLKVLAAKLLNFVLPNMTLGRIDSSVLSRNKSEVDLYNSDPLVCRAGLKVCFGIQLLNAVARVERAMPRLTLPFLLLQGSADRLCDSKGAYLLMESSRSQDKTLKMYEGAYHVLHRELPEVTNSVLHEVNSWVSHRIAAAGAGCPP

FAAH [2] = target: T2, FAAH (Mus musculus, UniProt O08914); experiment: In vitro competitive activity-based protein profiling, FAAH, mouse; conditions: read-out: FAAH % inh. 1 μM (mouse)
T2 sequence (O08914 1-579): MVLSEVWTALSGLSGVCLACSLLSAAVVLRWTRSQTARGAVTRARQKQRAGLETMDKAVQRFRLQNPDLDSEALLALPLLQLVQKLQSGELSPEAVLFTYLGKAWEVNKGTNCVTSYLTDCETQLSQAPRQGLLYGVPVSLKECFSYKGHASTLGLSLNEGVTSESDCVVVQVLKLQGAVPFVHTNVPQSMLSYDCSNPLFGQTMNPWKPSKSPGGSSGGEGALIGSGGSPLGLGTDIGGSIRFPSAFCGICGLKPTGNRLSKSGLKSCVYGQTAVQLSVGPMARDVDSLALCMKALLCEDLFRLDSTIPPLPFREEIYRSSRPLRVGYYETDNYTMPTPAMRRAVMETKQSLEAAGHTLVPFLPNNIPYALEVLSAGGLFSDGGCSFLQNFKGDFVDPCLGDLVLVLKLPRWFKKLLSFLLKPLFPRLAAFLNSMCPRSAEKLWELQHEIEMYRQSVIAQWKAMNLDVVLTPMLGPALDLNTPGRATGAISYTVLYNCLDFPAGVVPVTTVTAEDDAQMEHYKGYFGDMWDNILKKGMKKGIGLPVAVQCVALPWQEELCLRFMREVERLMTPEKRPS

MAGL [3] = target: T3, MAGL (Homo sapiens, UniProt Q99685); experiment: In vitro competitive activity-based protein profiling, MAGL, human; conditions: read-out: MAGL % inh. 1 μM (human)
T3 sequence (Q99685 1-303): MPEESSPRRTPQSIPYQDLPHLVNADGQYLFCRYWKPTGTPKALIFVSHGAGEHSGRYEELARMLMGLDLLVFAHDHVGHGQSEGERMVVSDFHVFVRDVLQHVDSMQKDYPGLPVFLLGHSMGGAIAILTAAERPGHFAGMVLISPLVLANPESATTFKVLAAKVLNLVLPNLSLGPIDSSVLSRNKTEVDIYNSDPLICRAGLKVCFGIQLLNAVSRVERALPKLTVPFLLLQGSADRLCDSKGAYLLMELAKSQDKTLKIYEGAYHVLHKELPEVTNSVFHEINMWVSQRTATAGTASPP

FAAH [4] = target: T4, FAAH (Homo sapiens, UniProt O00519); experiment: In vitro competitive activity-based protein profiling, FAAH, human; conditions: for inhibition at 1 µM: read-out: FAAH % inh. 1 μM (human)
T4 sequence (O00519 1-579): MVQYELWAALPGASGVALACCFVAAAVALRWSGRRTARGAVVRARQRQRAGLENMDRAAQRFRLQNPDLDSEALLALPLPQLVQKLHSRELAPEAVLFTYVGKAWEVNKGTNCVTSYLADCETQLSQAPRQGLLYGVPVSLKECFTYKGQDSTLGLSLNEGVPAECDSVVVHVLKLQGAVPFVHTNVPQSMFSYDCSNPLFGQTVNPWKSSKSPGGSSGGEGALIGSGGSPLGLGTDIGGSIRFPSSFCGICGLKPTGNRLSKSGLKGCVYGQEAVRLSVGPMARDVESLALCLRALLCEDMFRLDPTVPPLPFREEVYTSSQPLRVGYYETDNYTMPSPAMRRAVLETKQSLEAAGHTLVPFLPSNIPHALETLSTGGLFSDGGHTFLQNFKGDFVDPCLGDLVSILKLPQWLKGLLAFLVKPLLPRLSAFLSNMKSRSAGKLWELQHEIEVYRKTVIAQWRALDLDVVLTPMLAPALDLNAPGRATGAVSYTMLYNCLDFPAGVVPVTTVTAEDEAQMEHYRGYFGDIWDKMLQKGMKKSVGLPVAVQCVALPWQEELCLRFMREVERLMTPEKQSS

Row | Compound | inhibition at 1 µM (MAGL [1]) [%] | inhibition at 1 µM (FAAH [2]) [%] | inhibition at 1 µM (MAGL [3]) [%] | IC50 (FAAH [4]) [nM] | inhibition at 1 µM (FAAH [4]) [%]
1 | O=C(O)c1ccn(C(=O)N2CCN(Cc3cccc(Oc4ccccc4)c3)CC2)n1 [Example 2, 1-(4-(3-phenoxybenzyl)piperazine-1-carbonyl)-1H-pyrazole-3-carboxylic Acid] | > 75 | 25 to 50 |  |  | 
2 | O=C(O)c1ccn(C(=O)N2CCC(Oc3cccc(Cl)c3N3CCCC3)CC2)n1 [Example 13, 1-(4-(3-Chloro-2-(pyrrolidin-1-yl)phenoxy)piperidine-1-carbonyl)-1H-pyrazole-3-carboxylic Acid] | > 75 | 0 to 25 |  |  | 
3 | NC(=O)c1ccn(C(=O)N2CC3CN(Cc4ccc(N5CCOCC5)cc4C(F)(F)F)CC3C2)n1 (centres unmarked) [Example 17, 1-(5-(4-Morpholino-2-(trifluoromethyl)benzyl)octahydropyrrolo[3,4-c]pyrrole-2-carbonyl)-1H-pyrazole-3-carboxamide] | > 75 | > 75 |  |  | 
4 | O=C(O)c1ccn(C(=O)N2CC3CN(Cc4ccc(C(F)(F)F)cc4)CC3C2)n1 (centres unmarked) [Example 96, 1-(5-(4-(trifluoromethyl)benzyl)octahydro-pyrrolo[3,4-c]pyrrole-2-carbonyl)-1H-pyrazole-3-carboxylic acid] | > 75 | 25 to 50 |  |  | 
5 | O=C(O)c1ccn(C(=O)N2CCC3(CCN(Cc4ccc(-c5ccccc5)cc4C(F)(F)F)C3)CC2)n1 [Example 170, 1-(2-((3-(trifluoromethyl)-[1,1′-biphenyl]-4-yl)methyl)-2,8-diazaspiro[4.5]decane-8-carbonyl)-1H-pyrazole-3-carboxylic acid] |  |  | > 75 | 100 to 1000 | > 75
6 | O=C(O)c1ccn(C(=O)N2CCN(Cc3cccc(Oc4ccnnc4)c3)CC2)n1 [Example 177, 1-(4-(3-(pyridazin-4-yloxy)benzyl)pipera-zine-1-carbonyl)-1H-pyrazole-3-carboxylic acid] |  |  | 25 to 50 |  | 0 to 25
7 | NC(=O)c1ccn(C(=O)N2CCC3(CCN(Cc4cc(F)cc(Cl)c4)C3)CC2)n1 [Example 178, 1-(2-(3-chloro-5-fluorobenzyl)-2,8-diazaspiro[4.5]decane-8-carbonyl)-1H-pyrazole-3-carboxamide] |  |  | > 75 |  | > 75
8 | NC(=O)c1ccn(C(=O)N2CCN(Cc3cccc(-c4cncnc4)c3)CC2)n1 [Example 179, 1-(4-(3-(pyrimidin-5-yl)benzyl)piperazine-1-carbonyl)-1H-pyrazole-3-carboxamide] |  |  | > 75 |  | 50 to 75
9 | O=C(O)c1ccn(C(=O)N2CCC3(CCCN3Cc3ccc(Cl)cc3N3CCCC3)CC2)n1 [Example 180, 1-(1-(4-chloro-2-(pyrrolidin-1-yl)benzyl)-1,8-diazaspiro[4.5]decane-8-carbonyl)-1H-pyrazole-3-carboxylic acid] |  |  | > 75 |  | 0 to 25
10 | O=C(O)c1ccn(C(=O)N2CC3CN(Cc4ccc(Cl)cc4)CC3C2)n1 (centres unmarked) [Example 183, 1-(5-(4-chlorobenzyl)octa-hydropyrrolo[3,4-c]pyrrole-2-carbonyl)-1H-pyrazole-3-carboxylic acid] | 25 to 50 | 25 to 50 |  |  | 
11 | CN(Cc1ccccc1Cl)[C@H]1C[C@@H]2CN(C(=O)n3ccc(C(=O)O)n3)C[C@@H]2C1 [Example 184, 1-(trans-5-((2-chlorobenzyl) (methyl)amino)octa-hydrocyclopenta[c]pyrrole-2-carbonyl)-1H-pyrazole-3-carboxylic] | 0 to 25 | 25 to 50 |  |  | 
12 | NC(=O)c1ccn(C(=O)N2CCC3(CCN(Cc4cc(Cl)cc(C(F)(F)F)c4)C3)CC2)n1 [Example 196, 1-(2-(3-chloro-5-(trifluoromethyl)benzyl)-2,8-diazaspiro[4.5]decane-8-carbonyl)-1H-pyrazole-3-carboxamide] |  |  | > 75 |  | > 75
13 | NC(=O)c1ccn(C(=O)N2CCN(Cc3cccc(Oc4ccccc4)c3)CC2)n1 [Example 198, 1-(4-(3-phenoxybenzyl)pi-perazine-1-carbonyl)-1H-pyrazole-3-carboxamide] | > 75 | > 75 |  |  | 
14 | O=C(O)c1ccn(C(=O)N2CCC3(CCCN3Cc3ccc(C(F)(F)F)cc3N3CC4COCC4C3)CC2)n1 (centres unmarked) [Example 415, 1-(1-(2-(tetrahydro-1H-furo[3,4-c]pyrrol-5(3H)-yl)-4-(trifluoromethyl)benzyl)-1,8-diazaspiro[4.5]decane-8-carbonyl)-1H-pyrazole-3-carboxylic acid] | > 75 |  | > 75 |  | 
15 | O=C(O)c1ccn(C(=O)N2CCC3(CCCN3Cc3ccc(C(F)(F)F)cc3N3CC4CCC(C3)O4)CC2)n1 [Example 416, 1-(1-(2-(8-oxa-3-azabicyclo[3.2.1]octan-3-yl)-4-(trifluoromethyl)benzyl)-1,8-diazaspiro[4.5]decane-8-carbonyl)-1H-pyrazole-3-carboxylic acid] | > 75 |  | > 75 |  | 
16 | O=C(O)c1ccn(C(=O)N2CCC3(CCCN3Cc3ccc(C(F)(F)F)cc3N3CCN4CCC[C@@H]4C3)CC2)n1 [Example 417, (R)-1-(1-(2-(hexahydropyrrolo[1,2-a]pyrazin-2(1H)-yl)-4-(trifluoromethyl)benzyl)-1,8-diazaspiro[4.5]decane-8-carbonyl)-1H-pyrazole-3-carboxylic acid] | 0 to 25 |  | 25 to 50 |  | 
17 | O=C(O)c1ccn(C(=O)N2CCC3(CCCN3Cc3ccc(C(F)(F)F)cc3N3CCN4CCC[C@H]4C3)CC2)n1 [Example 418, (S)-1-(1-(2-(hexahydropyrrolo[1,2-a]pyrazin-2(1H)-yl)-4-(trifluoromethyl)benzyl)-1,8-diazaspiro[4.5]decane-8-carbonyl)-1H-pyrazole-3-carboxylic acid] | 0 to 25 |  | 25 to 50 |  | 
18 | C[C@H]1CN(Cc2cccc(OCC(C)(C)O)c2Cl)CCN1C(=O)n1ccc(C(N)=O)n1 [Example 450, (S)-1-(4-(2-chloro-3-(2-hydroxy-2-methylpropoxy)benzyl)-2-methylpiperazine-1-carbonyl)-1H-pyrazole-3-carboxamide] | > 75 |  | > 75 |  | 
19 | CC(C)(O)COc1cccc(O[C@H]2C[C@@H]3CN(C(=O)n4ccc(C(N)=O)n4)C[C@@H]3C2)c1Cl [Example 452, 1-(trans-5-(2-chloro-3-(2-hydroxy-2-methylpropoxy)phenoxy)octahydro-cyclopenta[c]pyrrole-2-carbonyl)-1H-pyrazole-3-carboxamide] | > 75 |  | > 75 |  | 
20 | NC(=O)c1ccn(C(=O)N2CCN(Cc3cccc(C4(C(=O)O)CCOCC4)c3)CC2)n1 [Example 455, 4-(3-((4-(3-carbamoyl-1H-pyrazole-1-carbonyl)piperazin-1-yl)methyl)phenyl) tetrahydro-2H-pyran-4-carboxylic acid] | > 75 |  | > 75 |  | 
